These results are taken from article PMC10799935, “Discovery of a peripheral 5HT2A antagonist as a clinical candidate for metabolic dysfunction-associated steatohepatitis” (Nature Communications, 2024).

Where “and” joins values, the source holds several entries; their conditions need not be identical. Equal entries are not always repeated.

Series [1] deals with T1, 5HT1B (h) (Homo sapiens, UniProt P28222).
T1 construct: host or cells: Hela cells
In words: 5HT subtype antagonism assay (Eurofins Cerep): 5HT1B. It is filed as cell-based. Particulars: concentration not given. The procedure: The derivatives were evaluated at a concentration of 1 μM for their antagonist activity on the 5HT2A receptor (Tables 1–3)[33],[34]. Human 5HT2A stably transfected HEK293 cells (a type of cell derived from kidney embryos)[20] were seeded in a 96-well plate (Costar; 3603) at a density of 9 × 10^4 in 100 μL of minimum essential medium (Welgene; LM007-86) containing 10% dialyzed fetal bovine serum (Gibco; 30067–334) and 1% penicillin/streptomycin (Gibco; 15140-122) and kept in a 37 °C incubator for 24 h. The cells were stained with 100 μL of cytosolic calcium dye using the FLIPR calcium 6 assay solution (Molecular devices, #R8190) supplemented with 2.5 mM probenecid (Sigma; P8761) and incubated for 1 h at 37 °C. After 1 h, the designated amount of the compound was treated in each well and incubated for another 1 h at 37 °C. Then, the cells were loaded in a Flexstation 3 microplate reader (Molecular Devices; FlexStaion) and 50 μL of 5 μM 5HT (serotonin hydrochloride, Sigma; H9523) was injected from a source plate (Nunc 96-well polystyrene conical bottom MicroWell Plate, Thermo; 249662) and the fluorescence intensity (Ex/Em-485nm/ 525 nm) was measured. […]
Antagonism assay Source Stimulus Incubation Measured Detection Method […]

Series [2] can be described thus: in vitro. Particulars: mouse.
Series [3] is described as follows: Hepatocyte stability test, rat. It is filed as in vitro ADME. Particulars: male, Sprague Dawley, cryopreserved hepatocytes, pH 7.4, read-out: Hepatocyte stability (% remaining after 3 h). The procedure: Hepatocyte incubations for the test compound (10 μM final concentration, n = 2 per each time point) were carried out in mouse, rat, dog, monkey and human cryopreserved hepatocytes, resuspended at a density of 0.5 million cells/ml of modified Krebs-Henseleit buffer (KHB). The information regarding the hepatocytes used in the experiment is as follows: liverPool® 10-donor mixed gender human (BioIVT, Cat.No. X008001, lot EAV), male cynomolgus monkey (BioIVT, Cat.No. M00305, lot COJ), male Beagle dog (BioIVT, Cat.No. M00205, lot USY), male Sprague Dawley rat (BioIVT, Cat.No. M00005, lot TQE) and male CD1 mouse (BioIVT, Cat.No.005052, lot LFF). In addition, the compound was also incubated with blank KHB. The final concentration of solvent (DMSO) was 0.1% of the final volume. The incubations were performed for 3 hours at 37°C and pH 7.4. Reactions were terminated at 0 and 180 minutes by the addition of 3 volumes of stop solution (acetonitrile/methanol (2:1, v/v) containing internal standard–diclofenac at 100 ng/ml). Samples (compound spiked buffer and compound spiked hepatocytes, as well as blank samples, i.e. hepatocytes with the same DMSO%) were then centrifuged and aliquots were transferred to 96-deep micronic tubes and frozen at -80 °C until LC-MS/MS analysis. […]

The target in series [4] is CYP2D6 (Homo sapiens, UniProt P10635). In words: in vitro.
Chain of CYP2D6 (P10635 whole entry): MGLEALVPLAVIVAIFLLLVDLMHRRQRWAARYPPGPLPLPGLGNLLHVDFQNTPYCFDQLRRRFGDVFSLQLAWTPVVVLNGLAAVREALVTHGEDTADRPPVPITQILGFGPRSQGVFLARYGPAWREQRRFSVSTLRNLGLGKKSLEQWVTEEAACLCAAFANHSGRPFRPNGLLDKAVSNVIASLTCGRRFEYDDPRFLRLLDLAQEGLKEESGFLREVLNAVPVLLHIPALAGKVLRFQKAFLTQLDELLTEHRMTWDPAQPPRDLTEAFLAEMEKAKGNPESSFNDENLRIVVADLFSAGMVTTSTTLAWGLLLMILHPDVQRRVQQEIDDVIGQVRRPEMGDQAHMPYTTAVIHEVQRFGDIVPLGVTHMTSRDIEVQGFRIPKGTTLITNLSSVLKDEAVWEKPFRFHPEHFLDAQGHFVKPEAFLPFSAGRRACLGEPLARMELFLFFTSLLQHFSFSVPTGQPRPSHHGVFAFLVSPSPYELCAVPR
For series [5], the system named is IL-1β. In words: CDAHFD mice: IL-1β immunohistochemical staining. It is filed as in vivo, mouse. Further details: IL-1β immunohistochemical staining (IL1b area), individual mouse / IL-1β immunohistochemical staining (IL1b area), Average: unit not given here. The settings on record: for IL-1β immunohistochemical staining (IL1b area), Average / IL-1β immunohistochemical staining (IL1b area), individual mouse: CDAHFD mice; for IL-1β immunohistochemical staining (IL1b area), Average: group average n=4, CDAHFD+Vehicle 8.870, Vehicle 2.958; for IL-1β immunohistochemical staining (IL1b area), individual mouse: individual animals No. 1-4 (Fig.4h). The text has this:
C57BL/6 J male mice were purchased from the Japan SLC. Inc (Hamamatsu, Japan). Mice (5 weeks old) were fed Teklad Certitied Irradiated Global 18% protein rodent diet purchased from Dooyeol Biotech Co. Ltd (Seoul, South Korea) during the acclimation period. The liver fibrosis/inflammation-induced groups were CDAHFD-fed (A06071302, Research diet). […] All animal experiments complied with the relevant ethical regulations.
Mouse liver tissues were fixed in 4% formalin solution (Sigma–Aldrich, St. Louis, MO, USA) and embedded in paraffin. 4-μm-thick liver sections were deparaffinized in xylene, and rehydrated through descending grades of ethanol. To evaluate liver fibrosis, sections were stained with Sirius red solution and subjected to immunohistochemical staining. Tissue sections, after deparaffinization, underwent a 16-hour incubation in a solution containing 0.1% Direct Red 80 (365548, Sigma-Aldrich) dissolved in Picric acid (P-201, Spectrum Chemical, CA, USA) for Sirius red staining. The sections were briefly immersed in a 0.01 N HCl solution (1129, Ducksan, Republic of Korea) for 2 min. and then rinsed with distilled water for destaining. Subsequently, the sections underwent dehydration through […] grades of ethanol. Immunohistochemical staining was performed using the Polyview Plus HRP-DAB (anti-Rabbit) Kit (ENZ-KIT159-0150, ENZO Life Science, NY, USA) following the manufacturers’ instructions. Deparaffinized sections were boiled in IHC-TekTM Epitope Retrieval solution (IW-1100, IHCWORLD, MD, USA) for 45 min., cooled for 1 h, incubated in a 3% H2O2 solution (69355-0350, JUNSEI, Japan) for 15 min., washed, and then incubated overnight with primary antibodies (α-SMA, ab5694, Abcam, 1:500 dilution; TNF-α, ab6671, Abcam, 1:100 dilution and IL-1β, ab9722, Abcam, 1:100 dilution). Subsequently, the sections were treated with Polyview Plus HRP for 2 h and developed with DAB chromogen/substrate. Stained […] sections were confirmed by light microscopy (Olympus BX53 upright microscope, Tokyo, Japan). The degree of hepatic fibrosis and immunohistochemical staining was quantified by morphometric analysis of stained liver sections using NIH ImageJ software.

T1 sequence (P28222 whole entry): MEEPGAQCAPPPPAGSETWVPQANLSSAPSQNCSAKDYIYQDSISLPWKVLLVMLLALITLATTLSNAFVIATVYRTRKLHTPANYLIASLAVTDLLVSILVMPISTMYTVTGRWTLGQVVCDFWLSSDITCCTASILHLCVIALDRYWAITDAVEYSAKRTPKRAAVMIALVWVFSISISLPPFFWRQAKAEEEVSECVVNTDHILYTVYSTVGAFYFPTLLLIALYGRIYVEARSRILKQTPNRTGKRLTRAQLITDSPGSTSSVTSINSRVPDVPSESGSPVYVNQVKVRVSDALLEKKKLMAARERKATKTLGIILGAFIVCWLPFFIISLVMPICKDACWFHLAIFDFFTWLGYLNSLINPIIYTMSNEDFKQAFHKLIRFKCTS

With `Cc1nc2n(c(=O)c1CCN1CCC(=C3c4ccc(Cl)cc4CCc4cccnc43)CC1)CCCC2O` (stereo not drawn) [Compound 11c], in series [1], the “Selectivity 1B: % inhibition” value was 16%. Also, the 50% inhibitory concentration (IC50) – broadly, the concentration that inhibits the measured activity by half – in series [2] was greater than 100 µM. Further, the amount remaining – broadly, the share of the starting amount still present when the sample was taken – at 3 h, 10 μM in series [3] was determined as 68.9%. Besides, in series [4], the inhibition (commonly the drop in the measured response relative to a control, in per cent) at 10 µM was 26.3%. Further, in series [5] (11c 5 mpk), the “IL-1β immunohistochemical staining (IL1b area), Average” value was 4.503; the “IL-1β immunohistochemical staining (IL1b area), individual mouse” value is 6.500 and 6.265 and 2.688 and 2.559. Besides, in series [5] (11c 10mpk), the “IL-1β immunohistochemical staining (IL1b area), Average” value is listed as 3.142; the “IL-1β immunohistochemical staining (IL1b area), individual mouse” value was 2.228 and 4.531 and 2.370 and 3.440. Moreover, the “IL-1β expression (immunohistochemical staining)” value in series [5] (CDAHFD-fed 11c vs CDAHFD-fed vehicle group) was “significant decrease”.
